Patent US20090221559A1 (priority 2005, published 2009)
Where two headings read alike, the source gives them in different places.

Columns and labels:
[1] = biological target: T1, HCV NS5B polymerase (His-tagged, C-terminal 21 amino acid deleted NS5B, HC-J4) (Hepatitis C virus genotype 1b, UniProt O92972); test: NS5b polymerase assay (biochemical RdRp assay, 3H-GTP incorporation, SPA beads); set-up: species or system HCV genotype 1b
T1 construct: The cDNA encoding NS5B amino acid 1-570 (HC-J4, genotype 1b); His tag (His6, from pET-21b) (C); made in house; host or cells: E. coli BL21 (DE3)
Method in brief: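 3H-GTP incorporation into newly made RNA was captured on SPA beads added in EDTA after 2 h at 25 °C. Compounds in DMSO met preformed enzyme–template complex (200 nM truncated His-NS5B, HC-J4 1b; biotin-oligo(rG13)/poly(rC)) for 15 min at RT, then 600 nM GTP, 5 mM MgCl2, Tris pH 7.5 started polymerization.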

[2] = tested on: HCV replicon RNA replication in Huh-7 luc/neo (Huh-Luc) cells; test: HCV replicon assay (stable replicon cell reporter assay, luciferase read-out); format: cell-based, HCV type 1b
Method in brief: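 Three-day compound exposure used Huh-Luc cells, which harbour an autonomously replicating genotype 1b NS3-NS5B replicon expressing luciferase and neo^R. Luciferase signal served as the replication read-out, and dose-response curves came from several concentrations per compound.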

[3] = NS5B Polymerase Assay IC50, 200 nM enzyme, 3H-GTP incorporation, 2 h at 25° C.
[4] = Hepatitis C virus, Huh-7, 72 h, read-out: Replicon Assay EC50, Huh-Luc cells, three days incubation, luciferase activity
[5] = NS5B Polymerase Assay IC50 (μM)
[6] = Hepatitis C virus, Huh-7, 72 h, read-out: Replicon Assay EC50 (μM), Huh-Luc cells, incubation of three days, luciferase activity

T1 sequence (O92972 2417-3000, looked up, stated change not applied): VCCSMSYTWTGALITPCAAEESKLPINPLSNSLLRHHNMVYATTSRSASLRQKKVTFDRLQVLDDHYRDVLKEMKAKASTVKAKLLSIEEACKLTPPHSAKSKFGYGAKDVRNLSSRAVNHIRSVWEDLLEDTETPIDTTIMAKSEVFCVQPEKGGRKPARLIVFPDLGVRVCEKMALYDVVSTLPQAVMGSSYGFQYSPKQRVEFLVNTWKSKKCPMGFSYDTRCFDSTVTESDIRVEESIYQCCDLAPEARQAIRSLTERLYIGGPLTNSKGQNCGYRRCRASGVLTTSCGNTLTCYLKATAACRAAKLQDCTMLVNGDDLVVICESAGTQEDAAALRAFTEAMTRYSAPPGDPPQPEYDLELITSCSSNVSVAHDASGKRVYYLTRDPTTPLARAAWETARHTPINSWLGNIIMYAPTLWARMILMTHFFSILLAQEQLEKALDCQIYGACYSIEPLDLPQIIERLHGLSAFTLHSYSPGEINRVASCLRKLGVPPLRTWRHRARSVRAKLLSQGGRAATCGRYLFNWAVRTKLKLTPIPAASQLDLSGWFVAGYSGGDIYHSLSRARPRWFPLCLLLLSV

Row | SMILES | IC50 [1, 3] [µM] | EC50 [2, 4] [µM] | melting point [°C] | IC50 [1, 5] [µM] | EC50 [2, 6] [µM] | EC50 ([2]; read-out: Replicon Assay EC50, Huh-Luc cells, three days incubation, luciferase activity) [µM]
1 | CC1(C)CC(=O)C2=C(C1)Nc1ccccc1N(C(=O)c1ccco1)C2c1ccc(Cl)cc1Cl (stereo not drawn) [compound 153] | 4.05 | 18.6 | > 260 |  |  | 
2 | CC(=O)N1c2ccccc2NC2=C(C(=O)CC(C)(C)C2)C1c1ccc(OCc2ccccc2)c(Cl)c1 (stereo not drawn) [compound 139, 10-acetyl-11-[4-benzyloxy-3-chlorophenyl]-3,3-dimethyl-2,3,4,5,10,11-hexahydro-1H-dibenzo[b,e][1,4]diazepin-1-one] | 1.01 | 2.9 | 197 |  |  | 
3 | CC1(C)CC(=O)C2=C(C1)Nc1cccc(C#N)c1NC2c1ccc(Cl)cc1Cl (stereo not drawn) [compound 470] |  |  | 225 | 23.3 | 16.5 | 
4 | CC1(C)CC(=O)C2=C(C1)Nc1ccccc1N(C(=O)c1ccccc1)C2c1ccc(Cl)cc1Cl (stereo not drawn) [compound 45] | 4.83 | 6.79 | > 250 |  |  | 
5 | Cc1cccc2c1NC(c1ccc(Cl)cc1Cl)C1=C(CC(C)(C)CC1=O)N2 (stereo not drawn) [compound 469] |  |  | 235 | 32.3 | 8.24 | 
6 | CC1(C)CC(=O)C2=C(C1)Nc1ccccc1N(C(=O)CC#N)C2c1ccc(Cl)cc1Cl (stereo not drawn) [compound 151] | 1.25 | 18.4 | > 260 |  |  | 
7 | CC(=O)N1c2ccccc2NC2=C(C(=O)CC(C)(C)C2)C1c1ccc(OCc2ccccc2)c(Cl)c1 (single isomer, unassigned) [compound 304, 10-acetyl-11-[4-benzyloxy-3-chlorophenyl]-3,3-dimethyl-2,3,4,5,10,11-hexahydro-1H-dibenzo[b,e][1,4]diazepin-1-one] | 0.46 | 7.59 | 130 |  |  | 
8 | CC(=O)N1c2ccccc2N(C)C2=C(C(=O)CC(C)(C)C2)C1c1ccc(Cl)cc1Cl (stereo not drawn) [compound 322] |  | 44.1 | 145 |  |  | 
9 | CC(=O)N1c2ccc(C(=O)NCCN3CCOCC3)cc2NC2=C(C(=O)CC(C)(C)C2)C1c1ccc(Cl)cc1Cl (stereo not drawn) [compound 321, 10-acetyl-N-(morpholin-4-ylethyl)-11-(2,4-dichlorophenyl)-3,3-dimethyl-1-oxo-2,3,4,5,10,11-hexahydro-1H-dibenzo[b,e][1,4]diazepine-7-carboxamide] | > 133 | 72.2 | > 260 |  |  | 
10 | CC(C)NC(=O)N1c2ccccc2NC2=C(C(=O)CC(C)(C)C2)C1c1ccc(Cl)cc1Cl (stereo not drawn) [compound 156] | 5.15 | 6.69 | > 260 |  |  | 
11 | CC(=O)N1c2cc(C#N)ccc2NC2=C(C(=O)CC(C)(C)C2)C1c1ccc(Cl)cc1Cl (stereo not drawn) [compound 318] | 67.1 |  | > 250 |  |  | 
12 | CN(C)c1ccc(NC(=O)N2c3ccccc3NC3=C(C(=O)CC(C)(C)C3)C2c2ccc(Cl)cc2Cl)cc1 (stereo not drawn) [compound 157] | 29.5 | 1.95 | 238 |  |  | 
13 | CC1(C)CC(=O)C2=C(C1)Nc1ccccc1N(C(=O)N1CCCCC1)C2c1ccc(Cl)cc1Cl (stereo not drawn) [compound 155] | > 133 |  | > 260 |  |  | 
14 | CC(=O)N1c2ccccc2N(Cc2ccccc2)C2=C(C(=O)CC(C)(C)C2)C1c1ccc(Cl)cc1Cl (stereo not drawn) [compound 323] | 53.8 | 1.65 | 235 |  |  | 
15 | CC(=O)N1c2c(Br)cccc2NC2=C(C(=O)CC(C)(C)C2)C1c1ccc(Cl)cc1Cl (stereo not drawn) [compound 311] | 13.3 | 4.03 | > 260 |  |  | 
16 | CC(=O)N1c2ccccc2NC2=C(C(=O)CC(C)(C)C2)C1c1ccc(Cl)cc1Cl (single isomer, unassigned) [compound 38, 10-Acetyl-11-(2,4-dichlorophenyl)-2,3,4,5,10,11-hexahydro-3,3-dimethyl-1H-dibenzo[b,e][1,4]diazepin-1-one] | 2.84 |  | > 250 |  |  | 23.8
17 | CC(=O)N1c2c(C#N)cccc2NC2=C(C(=O)CC(C)(C)C2)C1c1ccc(Cl)cc1Cl (stereo not drawn) [compound 313] | 6.04 | 27.5 | 248 |  |  | 
18 | Cc1cccc2c1NC1=C(C(=O)CC(C)(C)C1)C(c1ccc(Cl)cc1Cl)N2 (stereo not drawn) [compound 471] |  |  | 225 | > 133 | 14.7 | 

Row | SMILES | IC50 [1, 3] [µM] | EC50 [2, 4] [µM] | melting point [°C] | IC50 [1, 5] [µM] | EC50 [2, 6] [µM] | EC50 ([2]; read-out: Replicon Assay EC50, Huh-Luc cells, three days incubation, luciferase activity) [µM]
19 | CC(=O)N1c2c(CO)cccc2NC2=C(C(=O)CC(C)(C)C2)C1c1ccc(Cl)cc1Cl (stereo not drawn) |  |  | 200 |  |  | 
20 | CC(=O)N1c2c(CN3CCOCC3)cccc2NC2=C(C(=O)CC(C)(C)C2)C1c1ccc(Cl)cc1Cl (stereo not drawn) |  |  | > 260 |  |  | 
21 | CC(=O)N1c2ccc(CN(C)C)cc2NC2=C(C(=O)CC(C)(C)C2)C1c1ccc(Cl)cc1Cl (stereo not drawn) |  |  | > 260 |  |  | 
22 | CC(=O)N1c2ccc(C(=O)O)cc2NC2=C(C(=O)CC(C)(C)C2)C1c1ccc(Cl)cc1Cl (stereo not drawn) |  |  | > 250 |  |  | 
23 | COC(=O)c1ccc2c(c1)NC1=C(C(=O)CC(C)(C)C1)C(c1ccc(Cl)cc1Cl)N2C(C)=O (stereo not drawn) |  |  | > 250 |  |  | 
24 | CC1(C)CC(=O)C2=C(C1)Nc1ccccc1N(C(=O)CC(=O)O)C2c1ccc(Cl)cc1Cl (stereo not drawn) |  |  | 200 |  |  | 
25 | CC(=O)N1c2ccc(CN)cc2NC2=C(C(=O)CC(C)(C)C2)C1c1ccc(Cl)cc1Cl (stereo not drawn) |  |  | > 260 |  |  | 
26 | COC(=O)c1ccc2c(c1)N(C(C)=O)C(c1ccc(Cl)cc1Cl)C1=C(CC(C)(C)CC1=O)N2 (stereo not drawn) |  |  | > 250 |  |  | 
27 | CC(=O)N1c2cccc(C)c2NC2=C(C(=O)CC(C)(C)C2)C1c1ccc(Cl)cc1Cl (stereo not drawn) [compound 315] | 4.78 | 14.6 | > 260 |  |  | 
28 | CC(=O)N1c2c(cccc2C(=O)NCCc2ccncc2)NC2=C(C(=O)CC(C)(C)C2)C1c1ccc(Cl)cc1Cl (stereo not drawn) |  |  | > 260 |  |  | 
29 | CC1(C)CC(=O)C2=C(C1)Nc1c(N)cccc1NC2c1ccc(Cl)cc1Cl (stereo not drawn) [compound 474] |  |  | 248 | 1.72 | 34.1 | 
30 | CC(=O)N1c2c(CNCCN3CCOCC3)cccc2NC2=C(C(=O)CC(C)(C)C2)C1c1ccc(Cl)cc1Cl (stereo not drawn) |  |  | 236 |  |  | 
31 | CC1(C)CC(=O)C2=C(C1)Nc1ccccc1N(C(=O)CCc1ccccc1)C2c1ccc(Cl)cc1Cl (stereo not drawn) [compound 152] | 24.1 | 2.5 | 242 |  |  | 
32 | CC1(C)CC(=O)C2=C(C1)Nc1ccccc1N(C(=O)C(F)(F)F)C2c1ccc(Cl)cc1Cl (stereo not drawn) [compound 107] | > 133 | 11.5 | > 260 |  |  | 
33 | CCOC(=O)c1cccc2c1NC(c1ccc(Cl)cc1Cl)C1=C(CC(C)(C)CC1=O)N2 (stereo not drawn) |  |  | 208 |  |  | 
34 | CC(=O)N1c2ccccc2NC2=C(C(=O)CC(C)(C)C2)C1c1ccc(C(F)(F)F)cc1 (stereo not drawn) [compound 120] | > 133 | 31.8 | > 250 |  |  | 
35 | CC1(C)CC(=O)C2=C(C1)Nc1ccccc1N(C(=O)Cc1ccccc1)C2c1ccc(Cl)cc1Cl (stereo not drawn) [compound 154] | 123 | 5.46 | > 260 |  |  | 
36 | CNCc1ccc2c(c1)NC1=C(C(=O)CC(C)(C)C1)C(c1ccc(Cl)cc1Cl)N2C(C)=O (stereo not drawn) |  |  | > 260 |  |  | 
